According to article PMC8333425, “Discovery of a dual Ras and ARF6 inhibitor from a GPCR endocytosis screen” (Nature Communications, 2021):

Columns and labels:
Assay in all cases: KINOMEscan kinase binding assay
[1] = molecular target: T1, 384 kinases from the human genome (Homo sapiens, UniProt Q04759); settings: kinase PRKCQ (Entrez PRKCQ)
T1 construct: purchased Eurofin/DiscoverX
Summary of the method: (§1)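 Competition binding (KINOMEscan) across 384 human kinases with compound at 10 µM. Ligand binding was expressed relative to DMSO (100%) as the average of duplicates from one experiment. S(10) selectivity score was derived.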

[2] = molecular target: T2, 384 kinases from the human genome (Homo sapiens, UniProt Q92772); settings: kinase CDKL2 (Entrez CDKL2)
T2 construct: purchased Eurofin/DiscoverX
Summary of the method: as §1

[3] = molecular target: T3, 384 kinases from the human genome (Homo sapiens, UniProt Q8IU85); settings: kinase CAMK1D (Entrez CAMK1D)
T3 construct: purchased Eurofin/DiscoverX
T3 sequence (Q8IU85 whole entry): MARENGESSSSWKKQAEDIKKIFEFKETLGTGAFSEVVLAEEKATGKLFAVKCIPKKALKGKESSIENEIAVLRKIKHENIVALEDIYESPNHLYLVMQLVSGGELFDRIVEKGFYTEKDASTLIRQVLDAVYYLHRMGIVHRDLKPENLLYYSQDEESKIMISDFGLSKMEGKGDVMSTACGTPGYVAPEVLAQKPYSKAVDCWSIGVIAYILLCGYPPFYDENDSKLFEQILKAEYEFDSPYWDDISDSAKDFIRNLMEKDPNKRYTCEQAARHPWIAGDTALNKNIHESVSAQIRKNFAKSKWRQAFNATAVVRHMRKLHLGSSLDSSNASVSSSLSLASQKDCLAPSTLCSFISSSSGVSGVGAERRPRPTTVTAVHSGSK
Summary of the method: as §1

[4] = molecular target: T4, 384 kinases from the human genome (Homo sapiens, UniProt Q96NX5); settings: kinase CAMK1G (Entrez CAMK1G)
T4 construct: purchased Eurofin/DiscoverX
Summary of the method: as §1

[5] = molecular target: T5, 384 kinases from the human genome (Homo sapiens, UniProt P48736); settings: kinase PIK3CG (Entrez PIK3CG)
T5 construct: purchased Eurofin/DiscoverX
Summary of the method: as §1

[6] = molecular target: T6, 384 kinases from the human genome (Homo sapiens, UniProt Q13546); settings: kinase RIPK1 (Entrez RIPK1)
T6 construct: purchased Eurofin/DiscoverX
Summary of the method: as §1

[7] = molecular target: T7, 384 kinases from the human genome (Homo sapiens, UniProt O15146); settings: kinase MUSK (Entrez MUSK)
T7 construct: purchased Eurofin/DiscoverX
Summary of the method: as §1

[8] = molecular target: T8, 384 kinases from the human genome (Homo sapiens, UniProt P33981); settings: kinase TTK (Entrez TTK)
T8 construct: purchased Eurofin/DiscoverX
Summary of the method: as §1

[9] = molecular target: T9, 384 kinases from the human genome (Homo sapiens, UniProt P27361); settings: kinase ERK1 (Entrez MAPK3)
T9 construct: purchased Eurofin/DiscoverX
T9 sequence (P27361 whole entry): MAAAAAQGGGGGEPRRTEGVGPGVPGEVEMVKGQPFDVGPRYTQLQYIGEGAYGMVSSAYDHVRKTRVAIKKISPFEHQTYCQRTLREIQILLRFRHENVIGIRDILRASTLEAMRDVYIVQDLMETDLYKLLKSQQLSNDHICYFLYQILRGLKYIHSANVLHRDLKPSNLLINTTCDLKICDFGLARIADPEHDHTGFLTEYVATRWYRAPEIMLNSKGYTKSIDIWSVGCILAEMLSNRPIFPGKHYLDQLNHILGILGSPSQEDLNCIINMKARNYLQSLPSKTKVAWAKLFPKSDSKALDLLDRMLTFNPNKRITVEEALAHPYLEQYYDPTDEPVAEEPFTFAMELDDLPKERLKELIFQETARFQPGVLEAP
Summary of the method: as §1

[10] = molecular target: T10, 384 kinases from the human genome (Homo sapiens, UniProt Q9H1R3); settings: kinase MYLK2 (Entrez MYLK2)
T10 construct: purchased Eurofin/DiscoverX
Summary of the method: as §1

[11] = molecular target: T11, 384 kinases from the human genome (Homo sapiens, UniProt P46734); settings: kinase MEK3 (Entrez MAP2K3)
T11 construct: purchased Eurofin/DiscoverX
Summary of the method: as §1

[12] = molecular target: T12, 384 kinases from the human genome (Homo sapiens, UniProt P45985); settings: kinase MEK4 (Entrez MAP2K4)
T12 construct: purchased Eurofin/DiscoverX
Summary of the method: as §1

[13] = molecular target: T13, 384 kinases from the human genome (Homo sapiens, UniProt P31751); settings: kinase AKT2 (Entrez AKT2)
T13 construct: purchased Eurofin/DiscoverX
Summary of the method: as §1

[14] = molecular target: T14, 384 kinases from the human genome (Homo sapiens, UniProt P09619)
T14 construct: purchased Eurofin/DiscoverX
T14 sequence (P09619 33-1106): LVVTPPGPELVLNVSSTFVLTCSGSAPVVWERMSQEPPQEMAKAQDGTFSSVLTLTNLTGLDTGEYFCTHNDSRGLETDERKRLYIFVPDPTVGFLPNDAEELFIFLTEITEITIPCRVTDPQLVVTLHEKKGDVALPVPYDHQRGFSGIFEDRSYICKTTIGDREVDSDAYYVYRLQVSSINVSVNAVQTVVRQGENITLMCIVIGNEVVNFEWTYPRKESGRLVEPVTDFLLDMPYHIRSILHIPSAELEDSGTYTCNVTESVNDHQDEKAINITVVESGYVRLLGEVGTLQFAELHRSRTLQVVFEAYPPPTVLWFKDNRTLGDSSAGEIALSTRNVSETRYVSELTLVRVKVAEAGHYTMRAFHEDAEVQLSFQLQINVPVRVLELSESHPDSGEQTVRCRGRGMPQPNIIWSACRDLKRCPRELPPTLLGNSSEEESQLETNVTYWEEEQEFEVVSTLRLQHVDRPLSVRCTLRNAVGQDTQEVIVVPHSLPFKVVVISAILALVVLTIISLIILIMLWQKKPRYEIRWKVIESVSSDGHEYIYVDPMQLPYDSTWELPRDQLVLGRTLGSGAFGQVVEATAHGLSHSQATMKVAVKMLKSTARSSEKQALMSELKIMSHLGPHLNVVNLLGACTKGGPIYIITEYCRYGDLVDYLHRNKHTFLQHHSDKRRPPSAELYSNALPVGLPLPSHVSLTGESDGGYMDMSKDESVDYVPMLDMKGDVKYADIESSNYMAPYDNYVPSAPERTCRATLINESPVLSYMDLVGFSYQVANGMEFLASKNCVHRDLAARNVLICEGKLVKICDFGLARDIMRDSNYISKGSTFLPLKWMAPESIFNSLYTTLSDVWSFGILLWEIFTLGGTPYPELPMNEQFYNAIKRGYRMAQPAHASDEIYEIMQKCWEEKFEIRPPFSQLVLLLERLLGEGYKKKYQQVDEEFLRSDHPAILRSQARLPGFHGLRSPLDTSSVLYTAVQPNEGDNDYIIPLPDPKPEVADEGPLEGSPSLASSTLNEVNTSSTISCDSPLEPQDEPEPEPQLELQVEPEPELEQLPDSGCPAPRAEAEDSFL
Summary of the method: as §1

[15] = molecular target: T15, 384 kinases from the human genome (Homo sapiens, UniProt Q13164); settings: kinase ERK5 (Entrez MAPK7)
T15 construct: purchased Eurofin/DiscoverX
Summary of the method: as §1

[16] = molecular target: T16, 384 kinases from the human genome (Homo sapiens, UniProt Q96GD4); settings: kinase AURKB (Entrez AURKB)
T16 construct: purchased Eurofin/DiscoverX
Summary of the method: as §1

[17] = molecular target: T17, 384 kinases from the human genome (Homo sapiens, UniProt Q8TD19); settings: kinase NEK9 (Entrez NEK9)
T17 construct: purchased Eurofin/DiscoverX
T17 sequence (Q8TD19 whole entry): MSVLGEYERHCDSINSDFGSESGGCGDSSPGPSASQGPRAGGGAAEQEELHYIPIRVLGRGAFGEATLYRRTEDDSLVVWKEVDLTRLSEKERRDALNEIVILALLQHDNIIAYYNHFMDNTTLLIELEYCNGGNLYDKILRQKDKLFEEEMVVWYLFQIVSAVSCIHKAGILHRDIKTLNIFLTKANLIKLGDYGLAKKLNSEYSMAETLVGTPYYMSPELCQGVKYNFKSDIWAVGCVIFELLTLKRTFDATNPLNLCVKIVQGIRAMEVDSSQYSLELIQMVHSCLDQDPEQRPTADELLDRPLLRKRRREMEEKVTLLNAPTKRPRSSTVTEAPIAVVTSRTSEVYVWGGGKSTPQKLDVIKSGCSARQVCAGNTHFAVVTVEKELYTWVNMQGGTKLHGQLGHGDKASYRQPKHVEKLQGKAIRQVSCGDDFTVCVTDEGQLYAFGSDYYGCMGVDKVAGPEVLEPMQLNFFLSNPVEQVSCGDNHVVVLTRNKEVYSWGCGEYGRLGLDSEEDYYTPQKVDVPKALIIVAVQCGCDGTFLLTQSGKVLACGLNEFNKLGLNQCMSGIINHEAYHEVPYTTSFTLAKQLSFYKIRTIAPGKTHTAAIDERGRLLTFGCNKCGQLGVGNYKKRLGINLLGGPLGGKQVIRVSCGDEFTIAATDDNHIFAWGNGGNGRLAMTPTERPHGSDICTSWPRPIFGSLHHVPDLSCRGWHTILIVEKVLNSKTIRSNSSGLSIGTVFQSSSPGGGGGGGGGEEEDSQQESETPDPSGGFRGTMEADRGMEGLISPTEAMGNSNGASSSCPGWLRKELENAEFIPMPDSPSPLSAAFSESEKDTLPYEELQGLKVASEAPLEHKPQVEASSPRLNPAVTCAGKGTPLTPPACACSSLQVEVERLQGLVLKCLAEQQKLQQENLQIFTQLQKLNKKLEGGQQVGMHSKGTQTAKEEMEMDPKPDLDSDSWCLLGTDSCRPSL
Summary of the method: as §1

[18] = molecular target: T18, 384 kinases from the human genome (Homo sapiens, UniProt Q9Y616); settings: kinase IRAK3 (Entrez IRAK3)
T18 construct: purchased Eurofin/DiscoverX
Summary of the method: as §1

[19] = molecular target: T19, 384 kinases from the human genome (Homo sapiens, UniProt Q14004); settings: kinase CDC2L5 (Entrez CDK13)
T19 construct: purchased Eurofin/DiscoverX
Summary of the method: as §1

[20] = molecular target: T20, 384 kinases from the human genome (Homo sapiens, UniProt Q13043); settings: kinase MST1 (Entrez STK4)
T20 construct: purchased Eurofin/DiscoverX
Summary of the method: as §1

[21] = molecular target: T21, 384 kinases from the human genome (Homo sapiens, UniProt Q13237); settings: kinase PRKG2 (Entrez PRKG2)
T21 construct: purchased Eurofin/DiscoverX
Summary of the method: as §1

[22] = molecular target: T22, 384 kinases from the human genome (Homo sapiens, UniProt Q13163); settings: kinase MEK5 (Entrez MAP2K5)
T22 construct: purchased Eurofin/DiscoverX
Summary of the method: as §1

[23] = molecular target: T23, 384 kinases from the human genome (Homo sapiens, UniProt P51451); settings: kinase BLK (Entrez BLK)
T23 construct: purchased Eurofin/DiscoverX
Summary of the method: as §1

[24] = molecular target: T24, 384 kinases from the human genome (Homo sapiens, UniProt Q9H4B4); settings: kinase PLK3 (Entrez PLK3)
T24 construct: purchased Eurofin/DiscoverX
Summary of the method: as §1

[25] = molecular target: T25, 384 kinases from the human genome (Homo sapiens, UniProt P45983); settings: kinase JNK1 (Entrez MAPK8)
T25 construct: purchased Eurofin/DiscoverX
T25 sequence (P45983 whole entry): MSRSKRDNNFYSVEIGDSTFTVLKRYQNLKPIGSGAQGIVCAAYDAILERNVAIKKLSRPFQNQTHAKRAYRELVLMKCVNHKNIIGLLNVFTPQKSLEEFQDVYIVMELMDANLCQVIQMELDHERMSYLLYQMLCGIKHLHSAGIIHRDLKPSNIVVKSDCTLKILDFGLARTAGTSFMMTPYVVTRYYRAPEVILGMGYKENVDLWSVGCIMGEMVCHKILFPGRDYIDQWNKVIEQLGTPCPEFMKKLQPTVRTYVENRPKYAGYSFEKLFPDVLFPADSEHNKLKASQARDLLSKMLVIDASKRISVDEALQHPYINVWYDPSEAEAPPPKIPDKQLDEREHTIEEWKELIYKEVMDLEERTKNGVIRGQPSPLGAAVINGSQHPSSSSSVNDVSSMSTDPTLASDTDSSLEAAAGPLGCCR
Summary of the method: as §1

[26] = molecular target: T26, 384 kinases from the human genome (Homo sapiens, UniProt P30530); settings: kinase AXL (Entrez AXL)
T26 construct: purchased Eurofin/DiscoverX
T26 sequence (P30530 26-894): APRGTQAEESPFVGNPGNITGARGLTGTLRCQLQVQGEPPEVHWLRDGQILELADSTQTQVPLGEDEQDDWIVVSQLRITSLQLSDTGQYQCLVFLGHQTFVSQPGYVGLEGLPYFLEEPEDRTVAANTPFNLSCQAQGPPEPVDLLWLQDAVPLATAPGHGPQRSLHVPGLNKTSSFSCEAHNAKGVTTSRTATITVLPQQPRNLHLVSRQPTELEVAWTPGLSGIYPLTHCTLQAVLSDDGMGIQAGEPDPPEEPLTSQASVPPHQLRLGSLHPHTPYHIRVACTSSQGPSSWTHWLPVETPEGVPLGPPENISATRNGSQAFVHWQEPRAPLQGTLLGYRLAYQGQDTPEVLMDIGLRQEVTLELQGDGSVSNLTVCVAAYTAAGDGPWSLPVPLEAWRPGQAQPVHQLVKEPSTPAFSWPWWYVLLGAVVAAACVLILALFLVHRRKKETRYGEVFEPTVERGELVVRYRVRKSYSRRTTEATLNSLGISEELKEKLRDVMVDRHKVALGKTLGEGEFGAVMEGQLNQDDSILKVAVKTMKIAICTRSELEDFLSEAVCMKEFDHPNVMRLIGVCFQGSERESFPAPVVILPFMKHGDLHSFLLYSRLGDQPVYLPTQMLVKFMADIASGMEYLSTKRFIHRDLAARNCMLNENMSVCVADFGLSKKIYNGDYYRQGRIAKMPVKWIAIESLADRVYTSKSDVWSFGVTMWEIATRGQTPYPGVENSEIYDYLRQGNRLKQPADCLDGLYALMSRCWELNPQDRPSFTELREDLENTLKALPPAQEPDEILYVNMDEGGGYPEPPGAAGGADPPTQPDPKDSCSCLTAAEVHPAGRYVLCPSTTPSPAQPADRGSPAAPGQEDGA
Summary of the method: as §1

T1 sequence (Q04759 whole entry): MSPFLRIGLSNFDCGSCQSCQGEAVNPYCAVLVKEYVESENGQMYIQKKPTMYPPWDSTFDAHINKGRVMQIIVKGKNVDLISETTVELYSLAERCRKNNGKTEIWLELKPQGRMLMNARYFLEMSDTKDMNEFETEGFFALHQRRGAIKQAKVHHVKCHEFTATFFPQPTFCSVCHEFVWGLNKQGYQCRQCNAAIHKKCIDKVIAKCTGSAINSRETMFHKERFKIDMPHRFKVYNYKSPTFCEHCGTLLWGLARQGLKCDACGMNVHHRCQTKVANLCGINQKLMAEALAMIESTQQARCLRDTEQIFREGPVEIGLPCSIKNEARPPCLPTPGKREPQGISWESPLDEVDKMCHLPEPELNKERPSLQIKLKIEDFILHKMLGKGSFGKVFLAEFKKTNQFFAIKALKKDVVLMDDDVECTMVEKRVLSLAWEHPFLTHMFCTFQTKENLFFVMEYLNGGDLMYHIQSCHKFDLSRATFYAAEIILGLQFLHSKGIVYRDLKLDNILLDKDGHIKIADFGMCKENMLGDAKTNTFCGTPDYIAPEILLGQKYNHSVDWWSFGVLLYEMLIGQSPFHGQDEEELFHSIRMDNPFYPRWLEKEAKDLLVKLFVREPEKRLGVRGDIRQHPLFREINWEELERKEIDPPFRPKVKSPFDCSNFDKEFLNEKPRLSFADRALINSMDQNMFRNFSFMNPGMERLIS

## CC(C)C(=O)N1CCN(c2ccc(NC(=O)c3cc4ccccc4o3)cc2Cl)CC1 [Compound 21]
[1]
  Percent Control: 93%
[2]
  Percent Control: 100%
[3]
  Percent Control: 94%
[4]
  Percent Control: 100%
[5]
  Percent Control: 100%
[6]
  Percent Control: 76%
[7]
  Percent Control: 96%
[8]
  Percent Control: 92%
[9]
  Percent Control: 93%
[10]
  Percent Control: 80%
[11]
  Percent Control: 76%
[12]
  Percent Control: 93%
[13]
  Percent Control: 100%
[14]; 10 µM of 21, compared to DMSO (100%)
  PDGFRB binding to its ligand affected: more than 90%
[14]; kinase PDGFRB (Entrez PDGFRB)
  Percent Control: 2.6%
[15]
  Percent Control: 99%
[16]
  Percent Control: 83%
[17]
  Percent Control: 100%
[18]
  Percent Control: 67%
[19]
  Percent Control: 100%
[20]
  Percent Control: 97%
[21]
  Percent Control: 92%
[22]
  Percent Control: 72%
[23]
  Percent Control: 78%
[24]
  Percent Control: 81%
[25]
  Percent Control: 63%
[26]
  Percent Control: 69%
